{"source": "patent US10966978B2", "about": "“Dose and regimen for HDM2-p53 interaction inhibitors” (Novartis AG, priority 2016, dated 2021)", "key": {"[1]": {"assay": "Compartmental PK modeling of average concentration during cycle 1, patients with hematological tumors", "type": "in vivo, human", "details": "all patients with measured PK, four regimens", "description": "(§1) Pharmacokinetic data have been evaluated throughout the course of the clinical study. […] Furthermore, an integrated analysis of all available HDM201 concentrations was conducted using a population approach. The PK of HDM201 was best described by a 1-compartment PK model with a delayed zero- and first-order absorption process, and a linear clearance. Body weight was identified as a statistically significant covariate on apparent central volume of distribution (Vc/F), in which Vc/F increased with increasing body weight.\nCompartmental PK modeling was used to estimate the individual average concentration during cycle 1 for patients with hematological tumors treated following the four different (FIG. 7). For all patients with measured PK, the estimated average drug concentrations during cycle 1 were above the most conservative average tumor stasis concentration of about 41 ng/mL per cycle determined from PKPD modeling of preclinical data (human SJSA-1 xenograft rat model)."}, "[2]": {"test_system": "human SJSA-1 (osteosarcoma) xenograft", "assay": "PK/PD tumor growth modelling, human SJSA-1 xenograft rat model", "type": "in vivo", "details": "predicted preclinical target", "description": "Calculation of average dose level (mg/day):\nTo further support the preferred dose for HDM201, compartmental PK modeling was used to estimate the individual average concentration per cycle for the 9 patients treated at 120 mg on regimen 1B (FIG. 2). For the majority of patients (7 out of 9), the estimated average drug concentrations per cycle were near or above the most conservative average tumor stasis concentration of ≈41 ng/mL per cycle determined from PKPD modeling of preclinical data (human SJSA-1 xenograft rat model)."}, "[3]": {"assay": "Clinical PK of HDM201 in patients (non-compartmental and population PK), study HDM201X2101", "type": "in vivo, human", "details": "for Tmax: read-out: Tmax, median; for Cmax: read-out: Cmax, Geo Mean (% CV)", "description": "as §1, with “dose escalation. Two HDM201 drug variants have been evaluated during the course of the study (refer to the protocol for further details).” for “clinical study.”\nInter-patient variability (CV % Geo-mean) in exposure was generally low to moderate. Compartmental population PK modeling of NVP-HDM201 was used to estimate the individual average plasma concentration for Cycle 1 and to allow comparison with preclinical average concentration for tumor stasis derived by PK/PD tumor growth modeling.\nThe PK of HDM201 have been evaluated in the ongoing single agent Phase I clinical trial in patients with solid tumors and hematological malignancies (HDM201X2101). Patients have been treated with a single dose on Day 1 in a three-week cycle (q3w, regimen 1A), with a single dose on Day 1 and Day 8 in a four-week cycle (d1 and d8 of 4 w cycle, regimen 1B), or with daily dosing for the first 7 or 14 days in a four-week cycle (regimen 2C [q.d., 1 w on/3 w off] or regimen 2A [q.d., 2 w on/2 w off], respectively). PK assessments were conducted following single dose and repeated administration. Preliminary PK parameters from non-compartmental analysis of plasma concentration-time profiles are summarized by dose regimen and tumor type (data cut-off 1 Apr. 2016). PK parameters for Regimen 2A (Day 1 and 14 of Cycle 1 for doses from 1 to 20 mg) and Regimen 1A (Day 1 of Cycle 1 for doses from 12.5 to 350 mg) in solid tumor patients are summarized as representative of the PK for daily and less frequent dosing regimens (Tables 9, 10 and 11).\nFollowing oral dosing (HDM201 capsule, fasted), the median time to reach maximum plasma concentrations ranged from 2.0 to 5.8 h across the dose range (2 to 350 mg). With the daily dosing regimen, HDM201 steady-state was generally reached by Day 8, and accumulation was less than 2-fold. […]\nFurthermore, the individual PK data was best described by a 1-compartment PK model with a delayed zero- and first-order absorption process (data cut-off 1 Apr. 2016). […] Body weight was identified as a statistically significant covariate on Vc/F."}, "[4]": {"details": "Regimen 1A 12.5 mg, Day 1 single dose, solid malignancies, N = 1"}, "[5]": {"details": "Regimen 1A 25 mg, Day 1 single dose, solid malignancies, N = 1"}, "[6]": {"details": "Regimen 1A 50 mg, Day 1 single dose, solid malignancies, N = 4"}, "[7]": {"details": "Regimen 1A 100 mg, Day 1 single dose, solid malignancies, N = 4"}, "[8]": {"details": "Regimen 1A 200 mg, Day 1 single dose, solid malignancies, N = 5"}, "[9]": {"details": "Regimen 2A 1 mg daily, Day 14, solid malignancies, N = 1"}, "[10]": {"details": "Regimen 2A 2 mg daily, Day 14, solid malignancies, N = 2"}, "[11]": {"details": "Regimen 2A 4 mg daily, Day 14, solid malignancies, N = 3"}, "[12]": {"details": "Regimen 2A 15 mg daily, Day 14, solid malignancies, N = 4"}, "[13]": {"details": "Regimen 2A 15 mg, Day 1 single dose, solid malignancies, N = 4"}, "[14]": {"details": "human, plasma, oral, 1 mg, Regimen 2A 1 mg, Day 1 single dose, solid malignancies, N = 1"}, "[15]": {"details": "human, plasma, oral, 2 mg, Regimen 2A 2 mg, Day 1 single dose, solid malignancies, N = 2"}}, "note": "Where two headings read alike, the source gives them in different places.", "data": [{"smiles": "COc1ncc(-c2nc3c(n2C(C)C)[C@H](c2ccc(Cl)cc2)N(c2cc(Cl)cn(C)c2=O)C3=O)c(OC)n1", "note": "[HDM201, (S)-5-(5-Chloro-1-methyl-2-oxo-1,2-dihydro-pyridin-3-yl)-6-(4-chloro-phenyl)-2-(2,4-dimethoxy-pyrimidin-5-yl)-1-isopropyl-5,6-dihydro-1H-pyrrolo[3,4-d]imidazol-4-one]", "values": [{"measurement": "estimated average concentration during cycle 1 relative to tumor stasis concentration (about 41 ng/mL)", "setting": "[1]", "result": "above"}, {"measurement": "average concentration (target efficacious level) for 95% tumor regression", "setting": "[2]", "result": 120, "unit": "ng/mL"}, {"measurement": "AUClast (0-24 h), Geo Mean (% CV)", "setting": "[3]; [4]", "result": 1483.1, "unit": "ng·h/mL"}, {"measurement": "Cmax, Geo Mean (% CV)", "setting": "[3]; [4]", "result": 118.0, "unit": "ng/mL"}, {"measurement": "T½, Geo Mean (% CV)", "setting": "[3]; [4]", "result": 7.2, "unit": "h"}, {"measurement": "AUClast (0-24 h), Geo Mean (% CV)", "setting": "[3]; [5]", "result": 1773.6, "unit": "ng·h/mL"}, {"measurement": "T½, Geo Mean (% CV)", "setting": "[3]; [5]", "result": 31.1, "unit": "h"}, {"measurement": "AUClast (0-24 h), Geo Mean (% CV)", "setting": "[3]; [6]", "result": "8028.8 (25.6) ng * hr/mL"}, {"measurement": "Cmax, Geo Mean (% CV)", "setting": "[3]; [6]", "result": "467.0 (13.0) ng/mL"}, {"measurement": "AUClast (0-24 h), Geo Mean (% CV)", "setting": "[3]; [7]", "result": "14287.0 (58.5) ng * hr/mL"}, {"measurement": "Cmax, Geo Mean (% CV)", "setting": "[3]; [7]", "result": "663.3 (30.1) ng/mL"}, {"measurement": "AUClast (0-24 h), Geo Mean (% CV)", "setting": "[3]; [8]", "result": "26255.2 (56.2) ng * hr/mL"}, {"measurement": "Cmax, Geo Mean (% CV)", "setting": "[3]; [8]", "result": "1168.8 (43.7) ng/mL"}, {"measurement": "AUClast (0-24 h), Geo Mean (% CV)", "setting": "[3]; [9]", "result": 99.5, "unit": "ng·h/mL"}, {"measurement": "Cmax, Geo Mean (% CV)", "setting": "[3]; [9]", "result": 14.9, "unit": "ng/mL"}, {"measurement": "AUClast (0-24 h), Geo Mean (% CV)", "setting": "[3]; Regimen 2A 1 mg, Day 1 single dose, solid malignancies, N = 1", "result": 134.3, "unit": "ng·h/mL"}, {"measurement": "AUClast (0-24 h), Geo Mean (% CV)", "setting": "[3]; [10]", "result": "109.3 (6.0) ng * hr/mL"}, {"measurement": "Cmax, Geo Mean (% CV)", "setting": "[3]; [10]", "result": "17.5 (4.9) ng/mL"}, {"measurement": "AUClast (0-24 h), Geo Mean (% CV)", "setting": "[3]; Regimen 2A 2 mg, Day 1 single dose, solid malignancies, N = 2", "result": "169.1 (31.5) ng * hr/mL"}, {"measurement": "AUClast (0-24 h), Geo Mean (% CV)", "setting": "[3]; [11]", "result": "155.0 (21.7) ng * hr/mL"}, {"measurement": "Cmax, Geo Mean (% CV)", "setting": "[3]; [11]", "result": "25.6 (23.9) ng/mL"}, {"measurement": "Cmax, Geo Mean (% CV)", "setting": "[3]; Regimen 2A 4 mg, Day 1 single dose, solid malignancies, N = 4", "result": "17.6 (22.8) ng/mL"}, {"measurement": "AUClast (0-24 h), Geo Mean (% CV)", "setting": "[3]; Regimen 2A 7.5 mg, Day 1 single dose, solid malignancies, N = 4", "result": "598.1 (49.8) ng * hr/mL"}, {"measurement": "AUClast (0-24 h), Geo Mean (% CV)", "setting": "[3]; [12]", "result": "688.8 (29.2) ng * hr/mL"}, {"measurement": "Cmax, Geo Mean (% CV)", "setting": "[3]; [12]", "result": "106.0 (27.9) ng/mL"}, {"measurement": "AUClast (0-24 h), Geo Mean (% CV)", "setting": "[3]; [13]", "result": "1301.6 (71.0) ng * hr/mL"}, {"measurement": "Cmax, Geo Mean (% CV)", "setting": "[3]; [13]", "result": "91.5 (56.9) ng/mL"}, {"measurement": "accumulation upon daily dosing", "setting": "[3]; daily dosing", "result": "limited accumulation"}, {"measurement": "accumulation", "setting": "[3]; daily dosing regimen", "result": "less than 2 fold"}, {"measurement": "steady-state reached by", "setting": "[3]; daily dosing regimen", "result": "≤ 8", "unit": "days"}, {"measurement": "Tmax", "setting": "[3]; human, plasma, oral, 1 mg, Regimen 2A 1 mg daily, Day 14, solid malignancies, N = 1", "result": 4, "unit": "h"}, {"measurement": "Cmax", "setting": "[3]; [14]", "result": 7.9, "unit": "ng/mL"}, {"measurement": "Tmax", "setting": "[3]; [14]", "result": 8, "unit": "h"}, {"measurement": "Tmax", "setting": "[3]; human, plasma, oral, 2 mg, Regimen 2A 2 mg daily, Day 14, solid malignancies, N = 2", "result": 3.9, "unit": "h"}, {"measurement": "Cmax", "setting": "[3]; [15]", "result": 12, "unit": "ng/mL"}, {"measurement": "Tmax", "setting": "[3]; [15]", "result": 3.4, "unit": "h"}, {"measurement": "Tmax", "setting": "[3]; human, plasma, oral, 4 mg, Regimen 2A 4 mg daily, Day 14, solid malignancies, N = 3", "result": 4, "unit": "h"}, {"measurement": "AUC(0-t)", "setting": "[3]; human, plasma, oral, 4 mg, Regimen 2A 4 mg, Day 1 single dose, solid malignancies, N = 4, read-out: AUClast (0-24 h), Geo Mean (% CV)", "result": 193, "unit": "ng·h/mL"}, {"measurement": "Tmax", "setting": "[3]; human, plasma, oral, 4 mg, Regimen 2A 4 mg, Day 1 single dose, solid malignancies, N = 4", "result": 2.5, "unit": "h"}]}]}
